Test results published in ChEMBL document CHEMBL5726194, “Benzenesulfonamide compounds and their use as therapeutic agents” (2017).

Assay: Electrophysiological Assay : The following patch voltage clamp electrophysiology studies were performed on representative compounds of the invention using human embryonic kidney cells (HEK), permanently transfected with an expression vector containing the full-length cDNA coding for the desired human sodium channel α-subunit, grown in culture media containing 10% FBS, 1% PSG, and 0.5 mg/mL G418 at 37° C. with 5% CO2. […] Nav1.7 and Nav1.5 cDNAs (NM_002977 and AC137587; SCN5A, respectively) were stably expressed in HEK-293 cells. The β1 subunit was coexpressed only in the Nav1.7 cell line.
Assay type: cell-based

For O=S(=O)(Nc1ncns1)c1cc(F)c(OC[C@@H]2CNCC[C@H]2c2ccc(F)c(C(F)(F)F)c2)cc1F (relative stereo), which IC50 is on record?
The IC50 was 0.071 µM.
